Experiments:
[1] = system: dentate gyrus progenitors; assay: DCX expression in BrdU labeled progenitors in the dentate gyrus; assay type: in vivo, mice; conditions: 14 day treatment group
Source text: (§1) All experiments involving mice were done on 8-10 month old female retired breeders of C57BL6 background. A total of 33 mice were divided into 10 groups of 3 animals each (except control group which had 6 mice). The groups are described in Table 1. Details of CNTF peptides are described in Table 2.
(§2) The animals were kept in groups of 3 per cage. The mice were given daily intraperitoneal injections of four CNTF peptides either separately or in a mixture for 2 weeks as described in table 1. From day 2, BrdU (Bromodeoxyuridine; 150 mg/Kg) was added to the injections. The animals were sacrificed 24 hours after the last injection (FIG. 1). Briefly, the animals were perfused transcardially with PBS and their brains taken out and dissected into halves. One hemisphere from each animal was frozen for biochemical analysis and the other was fixed in 4% paraformaldehyde for 48 hours followed by equilibration in 30% sucrose in PBS overnight. These were then processed for immunohistochemistry.
(§3) Fixed tissues were cut into 40 μm sections on a freezing sliding microtome. One in 5 sections per brain was processed for BrdU staining and visualized by immunoflorecence. Cell counting was done on these sections to determine the number of BrdU labeled cells (representing newly born cells) in the dentate gyrus of the hippocampus. The area of counting was limited to the granule cell layer and the subgranular zone (a two-nucleus thick layer adjacent to the granule cell layer). For counting purposes, the dentate gyrus was divided into two areas, the outer granule cell layer (oGCL) consisting of out half of the granule cell layer, and the subventricular zone (SVZ) comprising of the inner half (towards the hilus) of the granule cell layer plus a two-nucleus thick layer adjacent to the outer border of the hilus. Cell counting was done on confocal images of the sections according to the optical dissector principle. Volumetric analysis was carried out with the help of Image Pro software.

[2] = system: dentate gyrus progenitor cells; assay: Cell proliferation (BrdU labeled cells) in the dentate gyrus of mice given CNTF peptides i.p.; assay type: in vivo; conditions: for proliferation of dentate gyrus progenitor cells: BrdU labeling, 8-10 month old female C57BL6 mice
Source text: as §1
as §2, with “Table” for “table”, “injection.” for “injection (FIG. 1).”
as §3, with “of one” for “of out”, “the subgranular” for “the subventricular”, “zone (SGZ)” for “zone (SVZ) comprising”
as §2, §3

normal adult mice = assay: Morris Water Maze task, CNTF 6a / CNTF 6c pellets 30 days; assay type: in vivo
Protocol: For behavioral studies, performance on the Morris Water Maze task was assessed in three groups of 10 mice each (placebo, CNTF6a and CNTF6c) which received peptide treatment for 30 days. To avoid daily stress due to injections, all animals undergoing behavioral studies received subcutaneous implants of CNTF 6a, CNTF 6c or placebo pellets as described above.
All animals for behavioral testing were coded such that the experimentator was blind to the assignment of the animals to specific treatment groups. The Morris Water Maze procedure was performed using a 110 cm diameter circular tank. Before training, the mice were handled gently for 2-3 min/day during 3 days to minimize non-specific stress. Acquisition was started with the submerged (invisible) escape platform in the North-East quadrant and each animal was given 60 sec to find the submerged escape platform. […] Five such acquisition trials were given on each day, for four consecutive days. A test for retention, or probe trial, was given 24 hours later. During the probe trial the mouse was allowed to swim in the tank without the escape platform for 60 seconds. This was followed by second and third probe trials 15 and 30 days from the first probe trial. Each probe trial was immediately followed by a “retraining session” consisting of 5 trials/animal to consolidate learned behavior.
The measures of learning were the time and distance swum to reach the escape platform. For retention during the probe trial, the tank was divided into four imaginary quadrants and a small zone where the escape platform had been (virtual platform). The measures of retention were the percent of time spent and the percent of distance swum in each quadrant, and the number of entries into the platform zone.
Mouse behavior in the Morris Water Maze was monitored by a Samsung Digital Camera (SDC 4304) mounted to the ceiling and tracked and timed by a SMART (Pan Lab/San Diego Instruments) version 2.0.14 software.
Since normal adult mice were used as experimental animals, it was crucial not to miss any effect on memory acquisition and learning that the 30-day peptide treatment might have had. Therefore, a partial training paradigm was used to evaluate learning and memory in the Morris Water Maze. Treated mice were trained on the Morris Water Maze for a total of 20 sessions spanning 4 days after which they were subjected to the first probe trial (P1). Two additional probe trials (P2 and P3) were administered 15 and 30 days after P1. […] Learning was evaluated in terms of latency and distance traveled to reach the invisible escape platform. Retention was measured on probe trials by the percent of time and travel distance in the target quadrant, and the number of crossings of the virtual platform.

[3] = system: granule cell layer of the dentate gyrus; assay: Stereological counts of DCX-, BrdU-NeuN- and c-Fos-NeuN-IR cells in the granule cell layer; assay type: in vivo, mice
Protocol: (§4) To study neurogenesis, mice received subcutaneous implants of extended release depot pellets containing either CNTF peptides 6a or 6c for 30 days of continuous dosing (Innovative Research of America, Sarasota, Fla.). For control groups, the pellets consisted of the carrier biopolymer only. For implantation, the mice were anesthetized with 2.5% Avertin (0.38 ml for a 25 g animal). Under sterile conditions, the pellets were then subcutaneously implanted along the anterolateral aspect of the right shoulder with a precision trochar (Innovative Research of America). The animals were then transferred to the animal colony after recovery from anesthesia. There were no complications associated with the implantation and treatment. BrdU was given as two daily i.p. injections (100 mg/kg/dose) for five days starting on day 2 of peptide treatment. Neurogenesis was assessed in the dentate gyrus (DG) by counting the number of BrdU-immunoreactive (BrdU-IR), BrdU-DCX-IR and BrdU-NeuN-IR cells in various layers of the DG. Employing principles of unbiased stereology, the optical fractionator method was used to estimate cell counts for the DG.
The following primary antibodies were used for immunohistochemistry: anti-BrdU (1:400; Accurate) a rat monoclonal raised against BrdU; anti-DCX (1:200; Santa Cruz Biotechnology Inc.), a goat polyclonal antibody raised against an 18-amino acid peptide representing residues […] of human doublecortin; anti-NeuN (1:500; Chemicon), a mouse monoclonal antibody raised against purified cell nuclei from mouse brain; Anti-c-Fos (Ab-5) (1:500; Calbiochem), a rabbit polyclonal antibody raised against a synthetic peptide corresponding to amino-acids 4-17 of human c-Fos; SMI52 (1:1000; Sternberger Monoclonals), a mouse monoclonal antibody specific for the mature neuronal marker MAP2a,b; anti-synaptophysin, SYN (1:200; Chemicon), a mouse monoclonal antibody raised against vesicular fraction of bovine brain. The following secondary antibodies were used: Alexa 488-conjugated goat anti-mouse IgG antibody and Alexa 594-conjugated goat anti-rabbit or anti-rat IgG antibody (Molecular Probes); biotinylated anti-rat IgG antibody and Cy5-conjugated goat anti-mouse antibody (Jackson ImmunoResearch).
(§5) Immunohistochemistry was performed as described elsewhere (Kuhn et al., J. Neurosci 17 (15) (1997): 5820-5829). Briefly, every 5th brain section was chosen for quantification of cell number and every 10th section was chosen for staining intensity scanning. Immunohistochemistry was performed on free floating sections. For BrdU immunohistochemistry, epitope retrieval and staining were performed as previously described (Kuhn et al., J. Neurosci 17 (15) (1997): 5820-5829).
For BrdU-DCX-, BrdU-NeuN-, and c-Fos-NeuN-IR cells, only GCL (consisting of iGCL and oGLC described above) was counted using 100× oil objective in every 10th section. To ensure objectivity, z-stacks were collected for each double IR cell and analyzed later by generating maximum projection and 3D constructs.

[4] = system: neural progenitor cells of the dentate gyrus; assay: Stereological counts of BrdU-IR cells in subregions of the hippocampus, 30-day pellets; assay type: in vivo, mice
Protocol: All in vivo studies for characterization of peptides (stereology and behavioral analysis) were performed on 8-10-month-old female retired breeders of C57Bl6 background. The animals were acclimatized for at least 3 weeks to exclude occasional pregnant mice from the studies. Mice were group-housed (3 animals per cage) with a 12:12 light:dark cycle and with free access to food and water. All procedures were conducted in accordance with approved protocols from our institutional Animal Welfare Committee.
as §4
At the end of treatment, all animals were anesthetized with an overdose of sodium pentobarbital and transcardially perfused with 0.1 M PBS. After perfusion, the brains were removed from the skull, the left hemisphere was immediately frozen for future biochemical analysis and the right hemisphere was fixed in 4% paraformaldehyde in 0.1 M PBS for at least 24 hours at room temperature. Tissues were then stored in 30% sucrose solutions at 4° C. until sectioning. The brains were sectioned sagittaly on a freezing sliding microtome at […] through the entire hippocampus and the sections were stored in glycol anti-freeze solution (Ethylene glycol, glycerol and 0.1 M PBS in 3:3:4 ratio) at −20° C. till further processing.
as §5
Neurogenesis was assessed in the DG by counting the number of BrdU-immunoreactive (BrdU-IR), BrdU-DCX-IR and BrdU-NeuN-IR cells in various layers of the DG. The granule cell layer (GCL) was subdivided into an inner and outer half (iGCL and oGCL). The iGCL consisted of the subgranular zone (SGZ, defined as a 2-3 nuclei thick layer bordering the GCL) and the inner half of the GCL adjacent to the Hilus (Hil); the outer GCL (oGCL) was defined as the half of the GCL adjacent to the Molecular layer (Mol). A cell in the middle of the GCL was considered part of the iGCL and a cell bordering the GCL in the Mol was included in oGCL counts. […] Hil included the superficial polymorphic layer.
All sections were collected using the random uniform sampling scheme. For BrdU-IR cells, counting was performed on every 5th section using 40× oil objective of a Nikon 90i fluorescent microscope equipped with Nikon C1 three laser confocal system and a Nikon DS U1 digital camera. Employing principles of unbiased stereology, the optical fractionator method was used to estimate cell counts for the DG (West et al., Anat Rec 231 (1991): 482-497). […]

[5] = daily i.p. injections for 2 weeks
[6] = both concentrations (0.5 and 5 nmoles/animal)
[7] = 30-day treated mice (n = 5/group)

With “CHQGCGGLFEC [Peptide 10, CNTF loop peptide, used as control]” the “differentiation of dentate gyrus progenitors into DCX (doublecortin) expressing cells” value (from here on “differentiation”) [1] was “did not have any effect” and the “proliferation of dentate gyrus progenitor cells” value [2, 5] was “no effect”.
In the case of “EDQQVHFTPTEG (neurotrophic and/or neurogenic peptide) [Peptide 9]”, the “differentiation” value [1] is reported as “did not have any effect”, the “cell proliferation in the SGZ” value ([2]; 0.5 nmoles/animal) is reported as “increased cell proliferation” and the “proliferation of dentate gyrus progenitor cells” value [2, 5] is reported as “statistically significant increase”.
In the case of “IPRNEADGMPINV (neurotrophic and/or neurogenic peptide) [Peptide 5]”, the “differentiation” value [1] is reported as “did not have any effect”, the “cell proliferation in the SGZ (subgranular zone)” value [2, 6] is reported as “increased cell proliferation” and the “cell proliferation in the oGCL (outer portion of the granule cell layer)” value [2, 6] is reported as “increased cell proliferation”. For the same substance, the “proliferation of dentate gyrus progenitor cells compared with Peptide 9” value [2, 5] was “more proliferation than Peptide 9” and the “proliferation of dentate gyrus progenitor cells” value [2, 5] was “statistically significant increase”.
For “V-G-D-G (VGDG; neurotrophic and/or neurogenic peptide) [CNTF 6a]”, the “learning in the spatial reference memory task (swim latencies)” value (normal adult mice; 30-day pellets, 20 training sessions over 4 days) was “no effect”, the “percent time spent in the target quadrant across three probe trials” value (normal adult mice; P1, P2, P3) was “reduced this time during subsequent P2 and P3” and the “Stereological counts (±SEM) of cells expressing DCX in the granule cell layer” value [3, 7] was 360 ± 33. The “Stereological counts (±SEM), NeuN-BrdU/BrdU in the granule cell layer” value [3, 7] was 19 ± 2, the “Stereological counts (±SEM) of c-fos-NeuN cells in the granule cell layer” value ([3]; 30-day treated mice (n = 5/group), basal activity) was 214 ± 27 and the “increase in BrdU-NeuN-IR cells in the GCL compared with placebo” value ([3]; 30-day treatment) was “no effect”. For the same substance, the “increase of DCX-IR cells in the GCL compared to placebo” value ([3]; 30-day treatment) was “did not show any significant difference”, the “BrdU-IR cell numbers in the four sub-regions of the DG” value ([4]; 30-day pellets) was “no effect” and the “increase of BrdU-IR cell counts in the GCL compared to placebo” value ([4]; 30-day pellets, 50 nmol/peptide/animal/day) was “not significant effect”. The “Stereological counts (±SEM) of BrdU-IR cells, GCL” value [4, 7] was 493 ± 28, the “Stereological counts (±SEM) of BrdU-IR cells, Hil” value [4, 7] was 126 ± 8 and the “Stereological counts (±SEM) of BrdU-IR cells, Mol” value [4, 7] was 538 ± 99. The “Stereological counts (±SEM) of BrdU-IR cells, iGCL” value [4, 7] was 382 ± 15 and the “Stereological counts (±SEM) of BrdU-IR cells, oGCL” value [4, 7] was 110 ± 13.
